Measurements from PubChem BioAssay (NCI).
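Five compound concentrations were applied to cells in 96-well plates for 48 hours; endpoints were derived by simple linear interpolation of the resulting dose-response curve. Definition used: TGI = concentration required for complete inhibition of growth.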

Experiments:
Assay in all cases: inhibition of tumour cell growth, NCI panel, 48 h
EKVX NSCLC = tested on: EKVX NSCLC
HT29 colon = tested on: HT29 colon
NCI-H522 lung = tested on: NCI-H522 lung
M19-MEL melanoma = tested on: M19-MEL melanoma
SK-OV-3 ovarian = tested on: SK-OV-3 ovarian
DMS 114 small cell lung = tested on: DMS 114 small cell lung
A498 renal = tested on: A498 renal
SK-MEL-28 melanoma = tested on: SK-MEL-28 melanoma
UACC-62 melanoma = tested on: UACC-62 melanoma
M14 melanoma = tested on: M14 melanoma
SR leukemia = tested on: SR leukemia
NCI-H460 lung = tested on: NCI-H460 lung
DMS 273 small cell lung = tested on: DMS 273 small cell lung
CCRF-CEM leukemia = tested on: CCRF-CEM leukemia
NCI-H226 lung = tested on: NCI-H226 lung
SNB-78 CNS = tested on: SNB-78 CNS
OVCAR-8 ovarian = tested on: OVCAR-8 ovarian
TK-10 renal = tested on: TK-10 renal
IGROV1 ovarian = tested on: IGROV1 ovarian
RXF 393 renal = tested on: RXF 393 renal
OVCAR-5 ovarian = tested on: OVCAR-5 ovarian
UACC-257 melanoma = tested on: UACC-257 melanoma
MOLT-4 leukemia = tested on: MOLT-4 leukemia
ACHN renal = tested on: ACHN renal
KM20L2 colon = tested on: KM20L2 colon
HL-60(TB) leukemia = tested on: HL-60(TB) leukemia
NCI-H23 lung = tested on: NCI-H23 lung
HCT-116 colon = tested on: HCT-116 colon
U251 CNS = tested on: U251 CNS
RXF-631 renal = tested on: RXF-631 renal
HOP-62 NSCLC = tested on: HOP-62 NSCLC
HOP-92 NSCLC = tested on: HOP-92 NSCLC
SF-295 CNS = tested on: SF-295 CNS
KM12 colon = tested on: KM12 colon
A549 NSCLC = tested on: A549 NSCLC
SW-620 colon = tested on: SW-620 colon
UO-31 renal = tested on: UO-31 renal
OVCAR-3 ovarian = tested on: OVCAR-3 ovarian
SNB-19 CNS = tested on: SNB-19 CNS
HCC-2998 colon = tested on: HCC-2998 colon
COLO 205 colon = tested on: COLO 205 colon
LXFL 529 NSCLC = tested on: LXFL 529 NSCLC
786-0 renal = tested on: 786-0 renal
HOP-18 NSCLC = tested on: HOP-18 NSCLC
MALME-3M melanoma = tested on: MALME-3M melanoma
SNB-75 CNS = tested on: SNB-75 CNS
SK-MEL-5 melanoma = tested on: SK-MEL-5 melanoma
OVCAR-4 ovarian = tested on: OVCAR-4 ovarian
CAKI-1 renal = tested on: CAKI-1 renal
SF-539 CNS = tested on: SF-539 CNS
SF-268 CNS = tested on: SF-268 CNS
LOX IMVI melanoma = tested on: LOX IMVI melanoma
SN12C renal = tested on: SN12C renal
SK-MEL-2 melanoma = tested on: SK-MEL-2 melanoma
HCT-15 colon = tested on: HCT-15 colon
K-562 leukemia = tested on: K-562 leukemia
DLD-1 colon = tested on: DLD-1 colon
XF 498 CNS = tested on: XF 498 CNS
RPMI-8226 leukemia = tested on: RPMI-8226 leukemia

NCC(=O)NC(CCCC(NC(=O)CN)P(=O)(O)O)P(=O)(O)O (stereo not drawn)
TGI (EKVX NSCLC): > 100 µM
TGI (HT29 colon): > 100 µM
TGI (NCI-H522 lung): > 100 µM
TGI (M19-MEL melanoma): > 100 µM
TGI (SK-OV-3 ovarian): > 100 µM
TGI (DMS 114 small cell lung): > 100 µM
TGI (A498 renal): > 100 µM
TGI (SK-MEL-28 melanoma): > 100 µM
TGI (UACC-62 melanoma): > 100 µM
TGI (M14 melanoma): > 100 µM
TGI (SR leukemia): > 100 µM
TGI (NCI-H460 lung): > 100 µM
TGI (DMS 273 small cell lung): > 100 µM
TGI (CCRF-CEM leukemia): > 100 µM
TGI (NCI-H226 lung): > 100 µM
TGI (SNB-78 CNS): > 100 µM
TGI (OVCAR-8 ovarian): > 100 µM
TGI (TK-10 renal): > 100 µM
TGI (IGROV1 ovarian): > 100 µM
TGI (RXF 393 renal): > 100 µM
TGI (OVCAR-5 ovarian): > 100 µM
TGI (UACC-257 melanoma): > 100 µM
TGI (MOLT-4 leukemia): > 100 µM
TGI (ACHN renal): > 100 µM
TGI (KM20L2 colon): > 100 µM
TGI (HL-60(TB) leukemia): > 100 µM
TGI (NCI-H23 lung): > 100 µM
TGI (HCT-116 colon): > 100 µM
TGI (U251 CNS): > 100 µM
TGI (RXF-631 renal): > 100 µM
TGI (HOP-62 NSCLC): > 100 µM
TGI (HOP-92 NSCLC): > 100 µM
TGI (SF-295 CNS): > 100 µM
TGI (KM12 colon): > 100 µM
TGI (A549 NSCLC): > 100 µM

Cc1cccc(N2C(=O)C(Cl)=C(Cl)C2=O)c1
TGI (SW-620 colon): > 60.7 µM
TGI (UO-31 renal): > 100 µM
TGI (EKVX NSCLC): > 100 µM
TGI (HT29 colon): > 100 µM
TGI (NCI-H522 lung): 22.7 µM
TGI (OVCAR-3 ovarian): > 80.5 µM
TGI (M19-MEL melanoma): > 100 µM
TGI (SK-OV-3 ovarian): > 100 µM
TGI (SNB-19 CNS): > 100 µM
TGI (HCC-2998 colon): > 100 µM
TGI (DMS 114 small cell lung): > 100 µM
TGI (COLO 205 colon): > 100 µM
TGI (A498 renal): > 100 µM
TGI (SK-MEL-28 melanoma): > 100 µM
TGI (UACC-62 melanoma): > 100 µM
TGI (M14 melanoma): > 100 µM
TGI (SR leukemia): 79.7 µM
TGI (NCI-H460 lung): > 100 µM
TGI (DMS 273 small cell lung): > 100 µM
TGI (LXFL 529 NSCLC): > 56.3 µM
TGI (786-0 renal): > 87.5 µM
TGI (HOP-18 NSCLC): > 100 µM
TGI (MALME-3M melanoma): > 59.4 µM
TGI (CCRF-CEM leukemia): > 61 µM
TGI (NCI-H226 lung): > 100 µM
TGI (SNB-78 CNS): > 100 µM
TGI (SNB-75 CNS): > 100 µM
TGI (OVCAR-8 ovarian): > 100 µM
TGI (SK-MEL-5 melanoma): > 100 µM
TGI (OVCAR-4 ovarian): > 71.7 µM
TGI (TK-10 renal): > 100 µM
TGI (CAKI-1 renal): > 56.9 µM
TGI (IGROV1 ovarian): > 100 µM
TGI (RXF 393 renal): 30.7 µM
TGI (SF-539 CNS): > 100 µM
TGI (OVCAR-5 ovarian): > 100 µM
TGI (UACC-257 melanoma): > 100 µM
TGI (MOLT-4 leukemia): > 75.8 µM
TGI (SF-268 CNS): > 100 µM
TGI (ACHN renal): > 74.6 µM
TGI (LOX IMVI melanoma): > 100 µM
TGI (KM20L2 colon): > 100 µM
TGI (SN12C renal): > 100 µM
TGI (SK-MEL-2 melanoma): > 100 µM
TGI (HL-60(TB) leukemia): > 100 µM
TGI (NCI-H23 lung): > 100 µM
TGI (HCT-116 colon): > 100 µM
TGI (U251 CNS): > 100 µM
TGI (HCT-15 colon): > 58.4 µM
TGI (K-562 leukemia): > 83.2 µM
TGI (HOP-62 NSCLC): > 100 µM
TGI (DLD-1 colon): > 60.7 µM
TGI (HOP-92 NSCLC): > 78.6 µM
TGI (SF-295 CNS): > 100 µM
TGI (XF 498 CNS): > 100 µM
TGI (RPMI-8226 leukemia): > 78.9 µM
TGI (KM12 colon): > 100 µM
TGI (A549 NSCLC): > 100 µM
